Where a name gives a salt, the structure may show the parent alone.
Molecular target: T1, IC-GPCR2 (Homo sapiens, UniProt Q8TDV5)
T1 construct: expressed in transfected cells
T1 sequence (Q8TDV5 1-335 S309L): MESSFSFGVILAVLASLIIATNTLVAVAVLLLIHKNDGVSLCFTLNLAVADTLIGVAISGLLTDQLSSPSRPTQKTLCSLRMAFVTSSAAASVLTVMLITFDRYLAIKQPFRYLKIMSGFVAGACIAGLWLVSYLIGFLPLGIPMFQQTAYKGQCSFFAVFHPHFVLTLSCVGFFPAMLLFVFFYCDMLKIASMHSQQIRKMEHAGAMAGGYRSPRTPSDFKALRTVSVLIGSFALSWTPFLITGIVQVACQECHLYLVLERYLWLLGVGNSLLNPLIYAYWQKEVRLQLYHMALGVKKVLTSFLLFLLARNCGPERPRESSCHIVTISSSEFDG
Experiment: Stimulation of cAMP in CHO cell line stably expressing IC-GPCR2 (HTRF cAMP dynamic kit)
Type: cell-based
Settings: 3 μM compound; relative to maximal activity of 5-Ethyl-2-{4-[4-(4-tetrazol-1-yl-phenoxymethyl)-thiazol-2-yl]-piperidin-1-yl}-pyrimidine (=100%); IC-GPCR2 stably expressing CHO cells, 30 minutes
Protocol: This assay was developed using a stable cell line expressing IC-GPCR-2, generated as follows. IC-GPCR2 (Seq. ID No. 1) was cloned into Gateway pDEST 40vector (Invitrogen), using the Gateway cloning system (invitrogen) according to the manufacturers instructions. A stable cell line was generated by transfecting a 10 cm plate of CHO cells (source) with 8 ug of this construct using Transit-CHO transfection kit (Mirus). CHO cells were plated the day prior to transfection at a density of 3,000,000 cells/plate. Clones were selected using the antibiotic G418 at 500 ug/ml. 23 clones were picked and assayed for the expression of the receptor by measuring changes in intracellular cAMP levels in response to an IC-GPCR2 agonist (Arena 51).
To measure cAMP activity in response to IC-GPCR2 agonist, the clones were plated in 96 well plates at 17500 cells per well. On the day after plating, cells were incubated with the IC-CPCR2 agonist at […] for 30 minutes in Ham's F12 Media (Gibco) with 0.04% DMSO. cAMP was measured using the cAMP dynamic kit from C is Bio (Bedford, Mass.) according to the manufacturers instructions. Briefly, cells were lysed, and cAMP levels determined by competitive immunoassay using D2 labeled cAMP, and europium cryptate tagged anti cAMP antibody. When in close proximity, the D2 and europium cryptate undergo fluorescence resonance energy transfer (FRET), which is measured as a fluorescence ratio (665 nm/620 nm). Unlabelled cAMP in the cell lysatc competed with the D2 labeled cAMP for the europium crypate labeled antibody. The resulting decrease in FRET signal corresponded to intracellular cAMP levels. Fluorescence was read on a BMG Labtech PHERAstar, software version 1.50.
The clone with the greatest response to IC-GPCR2 agonist was selected for the screening assay.
Compounds were dissolved in 100% DMSO to a concentration of […] to provide stock solutions. To determine activity against IC-GPCR2, compounds were incubated with IC-GPCR2 stably expressing cells (described above), at 6-8 concentrations ranging from 0.00003 to 10 micromolar, in 96 well plates, in 50 ul of Hams F12 media for 30 minutes. Cells were plated at 17500 cells per well 1 day before running the assay. All compounds were also screened against the parental CHO cells. cAMP was measured using the cAMP dynamic kit from Cis Bio (Bedford, Mass.), according to the manufacturer's instructions. Briefly, cells were lysed and cAMP levels determined by competitive immunoassay using D2 labeled cAMP, and europium cryptate tagged anti cAMP antibody. When in close proximity, the D2 and europium cryptate undergo fluorescence resonance energy transfer (FRET), which is measured as a fluorescence ratio (665 nm/620 nm). Unlabelled cAMP in the cell lysate competed with the D2 labeled cAMP for the europium crypate labeled antibody. The resulting decrease in FRET signal corresponded to intracellular cAMP levels
To determine percent activity for a tested compound, the FRET signal value obtained at a particular concentration are compared to the Maximal FRET signal value obtained for 5-Ethyl-2-{4-[4-(4-tetrazol-1-yl-phenoxymethyl)-thiazol-2-yl]-piperidin-1-yl}-pyrimidine. The maximal activity of 5-Ethyl-2-{4-[4-(4-tetrazol-1-yl-phenoxymethyl)-thiazol-2-yl]-piperidin-1-yl}-pyrimidine is designated as 100% activity. Typically, the concentration of 5-Ethyl-2-{4-[4-(4-tetrazol-1-yl-phenoxymethyl)-thiazol-2-yl]-piperidin-1-yl}-pyrimidine in the assay was approximately 0.1 μM. The synthesis of 5-Ethyl-2-{4-[4-(4-tetrazol-1-yl-phenoxymethyl)-thiazol-2-yl]-piperidin-1-yl}-pyrimidine is disclosed in co-owned pending U.S. patent application Ser. No. 11/964,461, herein incorporated by reference. Activities of compounds that were tested are shown in Table 1 below and are expressed as % activity at 3 μM compound compared to the maximal activity of 5-Ethyl-2-{4-[4-(4-tetrazol-1-yl-phenoxymethyl)-thiazol-2-yl]-piperidin-1-yl}-pyrimidine at 3 μM.

Row | % activity at 3 μM | SMILES
1 | 78.44% | FC(F)(F)c1cnc(N2CCC(n3ncc(COc4ccc(-n5cnnn5)nc4)n3)CC2)nc1 [Example 22, 2-{4-[4-(6-Tetrazol-1-yl-pyridin-3-yloxymethyl)-[1,2,3]triazol-2-yl]-piperidin-1-yl}-5-trifluoromethyl-pyrimidine]
2 | 48.76% | c1cc(-n2cnnn2)ncc1OCc1cnn(C2CCN(c3nc(C4CC4)no3)CC2)n1 [Example 29, 5-{2-[1-(3-Cyclopropyl-[1,2,4]oxadiazol-5-yl)-piperidin-4-yl]-2H-[1,2,3]triazol-4-ylmethoxy}-2-tetrazol-1-yl-pyridine]
3 | 53.41% | Fc1cnc(N2CCC(n3ncc(COc4ccc(-n5cnnn5)cc4F)n3)CC2)nc1 [Example 30, 5-Fluoro-2-(4-(4-((2-fluoro-4-(1H-tetrazol-1-yl)phenoxy)methyl)-2H-1,2,3-triazol-2-yl)piperidin-1-yl)pyrimidine]
4 | 59.95% | Fc1cnc(N2CCC(n3ncc(COc4ccc(-n5cnnn5)nc4)n3)CC2)nc1 [Example 31, 2-(4-(4-((6-(1H-tetrazol-1-yl)pyridin-3-yloxy)methyl)-2H-1,2,3-triazol-2-yl)piperidin-1-yl)-5-fluoropyrimidine]
5 | 75.55% | CCc1cnc(N2CCC(n3ncc(COc4ccc(-n5cnnn5)nc4)n3)CC2)nc1 [Example 32, 2-(4-(4-((6-(1H-tetrazol-1-yl)pyridin-3-yloxy)methyl)-2H-1,2,3-triazol-2-yl)piperidin-1-yl)-5-ethylpyrimidine]
6 | 72.14% | CC(C)OC(=O)N1CCC(n2ncc(COc3ccc(-n4cnnn4)nc3)n2)CC1 [Example 35, Isopropyl 4-(4-((6-(1H-tetrazol-1-yl)pyridin-3-yloxy)methyl)-2H-1,2,3-triazol-2-yl)piperidine-1-carboxylate]
7 | 70.06% | CC(C)OC(=O)N1CCC(n2ncc(COc3ccc(S(C)(=O)=O)cc3F)n2)CC1 [Example 36, Isopropyl 4-(4-((2-fluoro-4-(methylsulfonyl)phenoxy)methyl)-2H-1,2,3-triazol-2-yl)piperidine-1-carboxylate]
8 | 62.88% | CC(C)OC(=O)N1CCC(n2ncc(COc3ccc(-n4cnnn4)cc3F)n2)CC1 [Example 37, Isopropyl 4-(4-((2-fluoro-4-(1H-tetrazol-1-yl)phenoxy)methyl)-2H-1,2,3-triazol-2-yl)piperidine-1-carboxylate]
9 | 7.10% | O=S(=O)(c1c[nH]cn1)N1CCC(n2ncc(COc3ccc(-n4cnnn4)nc3)n2)CC1 [Example 40, 5-((2-(1-(1H-Imidazol-4-ylsulfonyl)piperidin-4-yl)-2H-1,2,3-triazol-4-yl)methoxy)-2-(1H-tetrazol-1-yl)pyridine]
10 | 42.63% | O=S(=O)(C1CC1)N1CCC(n2ncc(COc3ccc(-n4cnnn4)nc3)n2)CC1 [Example 41, 5-((2-(1-(Cyclopropylsulfonyl)piperidin-4-yl)-2H-1,2,3-triazol-4-yl)methoxy)-2-(1H-tetrazol-1-yl)pyridine]
11 | 70.92% | O=S(=O)(C1CCCCC1)N1CCC(n2ncc(COc3ccc(-n4cnnn4)nc3)n2)CC1 [Example 44, 5-((2-(1-(Cyclohexylsulfonyl)piperidin-4-yl)-2H-1,2,3-triazol-4-yl)methoxy)-2-(1H-tetrazol-1-yl)pyridine]
12 | 67.58% | CC(C)S(=O)(=O)N1CCC(n2ncc(COc3ccc(-n4cnnn4)nc3)n2)CC1 [Example 45, 5-((2-(1-(Isopropylsulfonyl)piperidin-4-yl)-2H-1,2,3-triazol-4-yl)methoxy)-2-(1H-tetrazol-1-yl)pyridine]
13 | 79.78% | CCCCS(=O)(=O)N1CCC(n2ncc(COc3ccc(-n4cnnn4)nc3)n2)CC1 [Example 46, 5-((2-(1-(Butylsulfonyl)piperidin-4-yl)-2H-1,2,3-triazol-4-yl)methoxy)-2-(1H-tetrazol-1-yl)pyridine]
14 | 74.90% | O=S(=O)(Cc1ccccc1)N1CCC(n2ncc(COc3ccc(-n4cnnn4)nc3)n2)CC1 [Example 47, 5-((2-(1-(Benzylsulfonyl)piperidin-4-yl)-2H-1,2,3-triazol-4-yl)methoxy)-2-(1H-tetrazol-1-yl)pyridine]
15 | 83.24% | Cc1ncccc1OCc1cnn(C2CCN(c3ncc(C(F)(F)F)cn3)CC2)n1 [Example 48]
16 | 49.51% | CC(C)(C)OC(=O)N1CCC(CC(=O)N2CCC(n3ncc(COc4ccc(-n5cnnn5)nc4)n3)CC2)CC1 [Example 50, tert-Butyl 4-(2-(4-(-((6-(1H-tetrazol-1-yl)pyridine-3-yloxy)methyl)-2H-1,2,3-triazol-2-yl)piperidin-1-yl)-2-oxoethyl)piperidine-1-carboxylate]
17 | 57.93% | O=C(CC1CCNCC1)N1CCC(n2ncc(COc3ccc(-n4cnnn4)nc3)n2)CC1 [Example 51, 1-(4-(4-((6-(1H-Tetrazol-1-yl)pyridin-3-yloxy)methyl)-2H-1,2,3-triazol-2-yl)piperidin-1-yl)-2-(piperidin-4-yl)ethanone hydrochloride]
18 | 52.86% | COC(=O)Cc1cnc(N2CCC(n3ncc(COc4ccc(-n5cnnn5)nc4)n3)CC2)nc1 [Example 52, Methyl 2-(2-(4-(4-((6-(1H-tetrazol-1-yl)pyridin-3-yloxy)methyl)-2H-1,2,3-triazol-2-yl)piperidin-1-yl)pyrimidin-5-yl)acetate]
19 | 36.82% | C[C@H](NC(=O)OC(C)(C)C)C(=O)N1CCC(n2ncc(COc3ccc(-n4cnnn4)nc3)n2)CC1 [Example 54, (S)-tert-Butyl 1-(4-(4-((6-(1H-tetrazol-1-yl)pyridin-3-yloxy)methyl)-2H-1,2,3-triazol-2-yl)piperidin-1-yl)-1-oxopropan-2-ylcarbamate]
20 | 31.89% | C[C@H](N)C(=O)N1CCC(n2ncc(COc3ccc(-n4cnnn4)nc3)n2)CC1 [Example 55, (S)-1-(4-(4-((6-(1H-tetrazol-1-yl)pyridin-3-yloxy)methyl)-2H-1,2,3-triazol-2-yl)piperidin-1-yl)-2-aminopropan-1-one hydrochloride]
21 | 7.31% | CC(C)(C)OC(=O)N[C@H](CC(=O)N1CCC(n2ncc(COc3ccc(-n4cnnn4)nc3)n2)CC1)Cc1cc(F)c(F)cc1F [Example 56, (S)-tert-Butyl 4-(4-(4-((6-(1H-tetrazol-1-yl)pyridin-3-yloxy)methyl)-2H-1,2,3-triazol-2-yl)piperidin-1-yl)-4-oxo-1-(2,4,5-trifluorophenyl)butan-2-ylcarbamate]
22 | 27.80% | N[C@H](CC(=O)N1CCC(n2ncc(COc3ccc(-n4cnnn4)nc3)n2)CC1)Cc1cc(F)c(F)cc1F [Example 57, (S)-1-(4-(4-((6-(1H-tetrazol-1-yl)pyridin-3-yloxy)methyl)-2H-1,2,3-triazol-2-yl)piperidin-1-yl)-3-amino-4-(2,4,5-trifluorophenyl)butan-1-one hydrochloride]
